{"source": "patent EP0354047A2", "about": "“Herbicidal method using atrazine” (MAY & BAKER LIMITED, priority 1988, dated 1990)", "assay_type_in_all_cases": "in vivo", "key": {"[1]": {"test_system": "Brachiaria plantaginea (BRAPL)", "assay": "Experiment 1: field experiment, post-emergence spray, % control 29 days after application", "settings": "Atrazine 1500g/ha", "procedure": "(§1) Duplicate 12m² plots were sprayed post-emergence with 250g or 500g/ha Compound 1 (in a composition according to Example 1 as described hereinafter) or 1500g/ha atrazine (in a commercial aqueous suspension concentrate formulation containing 500g/l w/v atrazine or a combination (as a tank mix) of the two herbicides in a volume of 300 litres/ha. The following control figures were recorded on the grass weeds Brachiaria plantaginea (BRAPL), Digitaria horizontalis (DIGHO) and Eleusine indica (ELEIN) 29 days after application."}, "[2]": {"test_system": "Digitaria horizontalis (DIGHO)", "assay": "Experiment 1: field experiment, post-emergence spray, % control 29 days after application", "settings": "Atrazine 1500g/ha", "procedure": "as §1"}, "Eleusine indica (ELEIN)": {"test_system": "Eleusine indica (ELEIN)", "assay": "Experiment 1: field experiment, post-emergence spray, % control 29 days after application", "settings": "Atrazine 1500g/ha", "procedure": "as §1"}, "Brassica kaber": {"test_system": "Brassica kaber", "assay": "Experiment 4: glasshouse, pre-emergence, fresh weight after 27 days, % inhibition of growth", "settings": "for % inhibition of growth: Compound 99 0 g/ha", "procedure": "(§2) Glasshouse experiments showing the biological interaction between atrazine and Compound 99 on weed species when applied pre-emergence. […] After 27 days the fresh weight of vegetation in each pot was determined. […] E = […]00005:character} where E, X and Y are percentage inhibition of growth. In addition the ED90 values (the application rate giving 90% inhibition of growth) were calculated from the results for Compound 99 alone and with increasing rates of atrazine. The ED90 values were then used to plot an isobole for each species according to the method of […] op cit. The results of percentage inhibition of growth, the ED values calculated from them and the calculated expected values are given in Table 8."}, "Sida spinosa": {"test_system": "Sida spinosa", "assay": "Experiment 4: glasshouse, pre-emergence, fresh weight after 27 days, % inhibition of growth", "settings": "for % inhibition of growth: Compound 99 0 g/ha", "procedure": "as §2"}}}
{"smiles": "CCNc1nc(Cl)nc(NC(C)C)n1", "note": "[Atrazine, 2-chloro-4-ethylamino-6-isopropylamino-1,3,5-triazine]", "values": [{"measurement": "% control observed", "setting": "[1]", "value": 10, "unit": "%"}, {"measurement": "% control observed", "setting": "[2]", "value": 0, "unit": "%"}, {"measurement": "% control observed", "setting": "Eleusine indica (ELEIN)", "value": 0, "unit": "%"}, {"measurement": "ED₉₀", "setting": "Brassica kaber; Atrazine alone", "value": "ED₉₀(g/ha) 157.7"}, {"measurement": "% inhibition of growth", "setting": "Brassica kaber; Atrazine 16 g/ha", "value": 0, "unit": "%"}, {"measurement": "% inhibition of growth", "setting": "Brassica kaber; Atrazine 31 g/ha", "value": 0, "unit": "%"}, {"measurement": "% inhibition of growth", "setting": "Brassica kaber; Atrazine 63 g/ha", "value": 34, "unit": "%"}, {"measurement": "% inhibition of growth", "setting": "Brassica kaber; Atrazine 125 g/ha", "value": 70, "unit": "%"}, {"measurement": "% inhibition of growth", "setting": "Brassica kaber; Atrazine 250 g/ha", "value": 100, "unit": "%"}, {"measurement": "% inhibition of growth", "setting": "Brassica kaber; Atrazine 500 g/ha", "value": 100, "unit": "%"}, {"measurement": "ED₉₀", "setting": "Sida spinosa; Atrazine alone", "value": "ED₉₀(g/ha) 478.75"}, {"measurement": "% inhibition of growth", "setting": "Sida spinosa; Atrazine 16 g/ha", "value": 10, "unit": "%"}, {"measurement": "% inhibition of growth", "setting": "Sida spinosa; Atrazine 31 g/ha", "value": 2, "unit": "%"}, {"measurement": "% inhibition of growth", "setting": "Sida spinosa; Atrazine 63 g/ha", "value": 15, "unit": "%"}, {"measurement": "% inhibition of growth", "setting": "Sida spinosa; Atrazine 125 g/ha", "value": 23, "unit": "%"}, {"measurement": "% inhibition of growth", "setting": "Sida spinosa; Atrazine 250 g/ha", "value": 37, "unit": "%"}, {"measurement": "% inhibition of growth", "setting": "Sida spinosa; Atrazine 500 g/ha", "value": 95, "unit": "%"}]}
